pIC50: −log10 of the molar value. Converted amounts (≈) assume the structure as drawn. The source made the active and inactive calls. The rule behind the calls is not given here.
Key:
Escherichia coli BW25113 [1] = experiment: Inhibition of AcrA efflux pump in Escherichia coli BW25113 assessed as compound concentration required for potentiation of novobiocin-induced antibacterial activity by 4 fold by checkerboard assay
Escherichia coli [2] = experiment: Antimicrobial activity against Escherichia coli harboring pores in outer membrane after 24 hrs by two-fold broth microdilution assay; assay type: functional
Escherichia coli [3] = experiment: Ratio of MIC for wild type Escherichia coli harboring […] pores in the outer membrane to MIC for wild type Escherichia coli harboring […] pores in the outer membrane in presence of novobiocin; assay type: functional
Escherichia coli [4] = experiment: Binding affinity to Escherichia coli AG100 His-tagged AcrA at 25 uM by SPR assay
Escherichia coli [5] = experiment: Ratio of MIC for wild type Escherichia coli harboring […] pores in the outer membrane to MIC for AcrAB-TolC knocked out Escherichia coli GD102 harboring […] pores in the outer membrane; assay type: functional
Escherichia coli [6] = experiment: Ratio of MIC for wild type Escherichia coli harboring […] pores in the outer membrane to MIC for wild type Escherichia coli harboring […] pores in the outer membrane in presence of erythromycin; assay type: functional
Escherichia coli [7] = experiment: Antimicrobial activity against Escherichia coli BW25113 after 24 hrs by two-fold broth microdilution assay; assay type: functional; conditions: BW25113, 24 h
Escherichia coli [8] = experiment: Antimicrobial activity against AcrAB-TolC knocked out Escherichia coli GD102 harboring […] pores in the outer membrane after 24 hrs by two-fold broth microdilution assay; assay type: functional; conditions: GD102, 24 h
Escherichia coli [9] = experiment: Binding affinity to Escherichia coli AG100 His-tagged AcrA at 50 uM by SPR assay
Escherichia coli [10] = experiment: Antimicrobial activity against Escherichia coli harboring AcrAB-TolC deletion mutant after 24 hrs by two-fold broth microdilution assay; assay type: functional
[11] = Ratio of MIC for wild type Escherichia coli BW25113 to MIC for Escherichia coli harboring […] pores in the outer membrane; assay type: functional, cell membranes
Escherichia coli [12] = experiment: Disruption of transmembrane potential in Escherichia coli live cells harboring pores in outer membrane at 10 uM by DiSC3(5) probe-based fluorescence assay; assay type: functional
Escherichia coli [13] = experiment: Inhibition of AcrA in Escherichia coli assessed as increase in HT dye uptake at 25 uM measured up to 600 secs by fluorescence method
Escherichia coli [14] = experiment: Inhibition of AcrA in Escherichia coli assessed as HT dye uptake at 25 uM measured up to 600 secs by fluorescence method relative to control
Escherichia coli [15] = experiment: Inhibition of AcrA in Escherichia coli assessed as increase in HT dye uptake at 25 uM measured up to 600 secs by fluorescence method relative to control
HEK293 = experiment: Cytotoxicity against HEK293 cells assessed as reduction in cell viability after overnight incubation by Cell Titer Glo assay; assay type: cell-based; conditions: Homo sapiens
Escherichia coli BW25113 [16] = experiment: Inhibition of AcrA efflux pump in Escherichia coli BW25113 assessed as compound concentration required for potentiation of novobiocin-induced antibacterial activity by 2 fold by checkerboard assay

O=C(Nc1ccc(C2=NCCN2)cc1)c1ccc(Cl)cc1
Activity (Escherichia coli BW25113 [1]): 200 µM

N#Cc1ccc(NC(=O)c2ccc(C(=O)Nc3ccc(C#N)cc3)c(Cl)c2)cc1
Activity (Escherichia coli BW25113 [1]): > 400 µM

O=C(Cc1ccc(Cl)cc1)Nc1ccc(C2=NCCN2)cc1
Activity (Escherichia coli BW25113 [1]): > 100 µM

O=C(Nc1ccc(C2=NCCN2)cc1)c1ccc(C(=O)Nc2ccc(C3=NCCN3)cc2)c(Cl)c1
MIC (Escherichia coli [2]): 100 µM (≈ 48.7 µg/mL)
Ratio (Escherichia coli [3]): 16
Activity (Escherichia coli [4]): Active
Ratio (Escherichia coli [5]): 8
Ratio (Escherichia coli [6]): 8
MIC (Escherichia coli [7]): > 200 µM
MIC (Escherichia coli [8]): 12.5 µM (≈ 6.09 µg/mL)
Activity (Escherichia coli BW25113 [1]): 25 µM
Activity (Escherichia coli [9]): Active
MIC (Escherichia coli [10]): 25 µM (≈ 12.2 µg/mL)
Ratio [11]: 4
Activity (Escherichia coli [12]): inactive
Activity (Escherichia coli [13]): Active
fold change (FC) (Escherichia coli [14]): 3.2

O=C(Nc1ccc(C2=NCCN2)cc1)c1ccc2cc(Br)ccc2c1
MIC (Escherichia coli [2]): 200 µM (≈ 78.9 µg/mL)
Ratio (Escherichia coli [3]): 16
Activity (Escherichia coli [4]): Active
Ratio (Escherichia coli [5]): 16
Ratio (Escherichia coli [6]): 16
MIC (Escherichia coli [7]): > 400 µM
MIC (Escherichia coli [8]): 12.5 µM (≈ 4.93 µg/mL)
fold change (FC) (Escherichia coli [15]): 1.6
Activity (Escherichia coli BW25113 [1]): 25 µM
MIC (Escherichia coli [10]): 25 µM (≈ 9.86 µg/mL)
Ratio [11]: 4
Activity (Escherichia coli [13]): Active
fold change (FC) (Escherichia coli [14]): 16

O=C(Nc1ccc(-c2ncc[nH]2)cc1)c1ccc(C(=O)Nc2ccc(-c3ncc[nH]3)cc2)c(Cl)c1
Activity (Escherichia coli BW25113 [1]): > 400 µM

COc1ccc(/C=C/C(=O)Nc2ccc(C3=NCCN3)cc2)cc1
Activity (Escherichia coli BW25113 [1]): 100 µM

O=C(Nc1ccc(C2=NCCN2)cc1)c1ccc2c(c1)CN(Cc1ccccc1)C2=O
Activity (Escherichia coli BW25113 [1]): > 200 µM

O=C(/C=C/c1ccccc1Cl)Nc1ccc(C2=NCCN2)cc1
MIC (Escherichia coli [2]): 400 µM (≈ 130 µg/mL)
Ratio (Escherichia coli [3]): 32
pIC50 (HEK293): 4.98
Activity (Escherichia coli [4]): Active
Ratio (Escherichia coli [5]): 4
Ratio (Escherichia coli [6]): 8
MIC (Escherichia coli [7]): > 200 µM
MIC (Escherichia coli [8]): 100 µM (≈ 32.6 µg/mL)
Activity (Escherichia coli BW25113 [1]): 25 µM
MIC (Escherichia coli [10]): 200 µM (≈ 65.2 µg/mL)
Ratio [11]: 1
Activity (Escherichia coli [12]): inactive
Activity (Escherichia coli [13]): Active
fold change (FC) (Escherichia coli [14]): 9.7

Cc1cc(C(=O)Nc2ccc(C3=NCCN3)cc2)ccc1C(=O)Nc1ccc(C2=NCCN2)cc1
Activity (Escherichia coli BW25113 [1]): 25 µM

O=C(CCC(=O)Nc1ccc(C2=NCCN2)cc1)Nc1ccc(C2=NCCN2)cc1
Activity (Escherichia coli BW25113 [1]): > 400 µM

Nc1ccc(C2=NCCN2C(=O)c2ccc(C(=O)N3CCN=C3c3ccc(N)cc3)c(Cl)c2)cc1
Activity (Escherichia coli BW25113 [1]): 50 µM

NCc1ccc(NC(=O)c2ccc(C(=O)Nc3ccc(CN)cc3)cc2)cc1
Activity (Escherichia coli BW25113 [1]): 50 µM

Cn1cnnc1-c1ccc(NC(=O)c2ccc(C(=O)Nc3ccc(-c4nncn4C)cc3)c(Cl)c2)cc1
Activity (Escherichia coli BW25113 [1]): > 400 µM

O=C(NCc1ccccc1)c1ccc(C(=O)Nc2ccc(C3=NCCN3)cc2)cc1
Activity (Escherichia coli BW25113 [1]): > 200 µM

O=C(Nc1ccc(C2=NCCN2)cc1)c1ccc(C(=O)Nc2ccc(C3=NCCN3)cc2)c(F)c1
Activity (Escherichia coli BW25113 [1]): 100 µM

CC(C)c1ccc(/C=C/C(=O)Nc2ccc(C3=NCCN3)cc2)cc1
MIC (Escherichia coli [2]): 50 µM (≈ 16.7 µg/mL)
Ratio (Escherichia coli [3]): 8
pIC50 (HEK293): < 4.00
Activity (Escherichia coli [4]): Active
Ratio (Escherichia coli [5]): 2
Ratio (Escherichia coli [6]): 8
MIC (Escherichia coli [7]): 100 µM (≈ 33.3 µg/mL)
MIC (Escherichia coli [8]): 25 µM (≈ 8.34 µg/mL)
Activity (Escherichia coli BW25113 [1]): 50 µM
MIC (Escherichia coli [10]): 25 µM (≈ 8.34 µg/mL)
Ratio [11]: 2
Activity (Escherichia coli [12]): inactive
Activity (Escherichia coli [13]): Active
fold change (FC) (Escherichia coli [14]): 6.3

O=C(Nc1ccc(C2=NCCN2)cc1)c1ccc(C(=O)Nc2ccc(C3=NCCN3)cc2)cc1
Activity (Escherichia coli BW25113 [1]): 50 µM

O=C(Nc1ccc(C2=NCCN2)cc1)c1cccc(C(=O)Nc2ccc(C3=NCCN3)cc2)c1
Activity (Escherichia coli BW25113 [1]): 200 µM

O=C(Nc1ccc(CO)cc1)c1ccc(C(=O)Nc2ccc(CO)cc2)c(Cl)c1
Activity (Escherichia coli BW25113 [1]): > 200 µM

O=C(/C=C/c1cccc(Cl)c1)Nc1ccc(C2=NCCN2)cc1
Activity (Escherichia coli BW25113 [1]): 50 µM

O=C(/C=C/c1ccc(Cl)cc1)Nc1ccc(C2=NCCN2)cc1
MIC (Escherichia coli [2]): 100 µM (≈ 32.6 µg/mL)
Ratio (Escherichia coli [3]): 8
Ratio (Escherichia coli [5]): 4
Ratio (Escherichia coli [6]): 4
MIC (Escherichia coli [7]): 200 µM (≈ 65.2 µg/mL)
MIC (Escherichia coli [8]): 25 µM (≈ 8.14 µg/mL)
Activity (Escherichia coli BW25113 [1]): 25 µM
MIC (Escherichia coli [10]): 50 µM (≈ 16.3 µg/mL)
Ratio [11]: 2
Activity (Escherichia coli [13]): Active
fold change (FC) (Escherichia coli [14]): 2.5

O=C(/C=C/c1ccccc1Br)Nc1ccc(C2=NCCN2)cc1
MIC (Escherichia coli [2]): > 400 µM
Ratio (Escherichia coli [3]): 32
Activity (Escherichia coli [4]): Active
Ratio (Escherichia coli [5]): 8
Ratio (Escherichia coli [6]): 32
MIC (Escherichia coli [7]): > 400 µM
MIC (Escherichia coli [8]): 100 µM (≈ 37 µg/mL)
Activity (Escherichia coli BW25113 [1]): 50 µM
MIC (Escherichia coli [10]): 200 µM (≈ 74.1 µg/mL)
Ratio [11]: 1
Activity (Escherichia coli [13]): Active
fold change (FC) (Escherichia coli [14]): 11.6

O=C(/C=C/c1ccc(Br)cc1)Nc1ccc(C2=NCCN2)cc1
Activity (Escherichia coli BW25113 [1]): 100 µM

O=C(Nc1ccc(S(=O)(=O)O)cc1)c1ccc(C(=O)Nc2ccc(S(=O)(=O)O)cc2)cc1
Activity (Escherichia coli BW25113 [1]): > 100 µM

CC(C)(C)c1ccc(/C=C/C(=O)Nc2ccc(C3=NCCN3)cc2)cc1
MIC (Escherichia coli [2]): 25 µM (≈ 8.69 µg/mL)
Ratio (Escherichia coli [3]): 2
Activity (Escherichia coli [4]): Active
Ratio (Escherichia coli [5]): 2
Ratio (Escherichia coli [6]): 2
MIC (Escherichia coli [7]): 25 µM (≈ 8.69 µg/mL)
MIC (Escherichia coli [8]): 12.5 µM (≈ 4.34 µg/mL)
fold change (FC) (Escherichia coli [15]): 2.6
Activity (Escherichia coli BW25113 [16]): 12.5 µM
MIC (Escherichia coli [10]): 12.5 µM (≈ 4.34 µg/mL)
Ratio [11]: 1
Activity (Escherichia coli [13]): Active
fold change (FC) (Escherichia coli [14]): 2.6

O=C(Nc1cccc(C2=NCCN2)c1)c1ccc(C(=O)Nc2cccc(C3=NCCN3)c2)cc1
MIC (Escherichia coli [2]): 100 µM (≈ 45.3 µg/mL)
Ratio (Escherichia coli [3]): 4
Activity (Escherichia coli [4]): Active
Ratio (Escherichia coli [5]): 4
Ratio (Escherichia coli [6]): 4
MIC (Escherichia coli [7]): 200 µM (≈ 90.5 µg/mL)
MIC (Escherichia coli [8]): 25 µM (≈ 11.3 µg/mL)
Activity (Escherichia coli BW25113 [1]): 50 µM
MIC (Escherichia coli [10]): 50 µM (≈ 22.6 µg/mL)
Ratio [11]: 2
Activity (Escherichia coli [13]): Active
fold change (FC) (Escherichia coli [14]): 1.7

O=C(/C=C/c1ccccc1)Nc1ccc(C2=NCCN2)cc1
Activity (Escherichia coli BW25113 [1]): 200 µM

N#Cc1cccc(NC(=O)c2ccc(C(=O)Nc3cccc(C#N)c3)c(Cl)c2)c1
Activity (Escherichia coli BW25113 [1]): > 400 µM

O=C(Nc1ccc(C2=NCCN2)cc1)c1ccc(C(=O)Nc2ccc(C3=NCCN3)cc2)c([N+](=O)[O-])c1
Activity (Escherichia coli BW25113 [1]): 25 µM

O=C(Nc1ccc(C2=NCCN2)cc1)c1ccc(C(=O)Nc2ccc(C3=NCCN3)cc2)c(Br)c1
Activity (Escherichia coli BW25113 [1]): 50 µM

COC(=O)c1ccc(C(=O)Nc2ccc(C3=NCCN3)cc2)cc1
Activity (Escherichia coli BW25113 [1]): > 400 µM

O=C(CCc1ccccc1)Nc1ccc(C2=NCCN2)cc1
Activity (Escherichia coli BW25113 [1]): > 100 µM

CC(C)[C@@H]1NC(=O)[C@H](C)OC(=O)[C@@H](C(C)C)NC(=O)[C@@H](C(C)C)OC(=O)[C@H](C(C)C)NC(=O)[C@H](C)OC(=O)[C@@H](C(C)C)NC(=O)[C@@H](C(C)C)OC(=O)[C@H](C(C)C)NC(=O)[C@H](C)OC(=O)[C@@H](C(C)C)NC(=O)[C@@H](C(C)C)OC1=O
Activity (Escherichia coli [12]; TDE = time-dependent effect): Tde

O=C(Nc1ccc(NC(=O)c2ccc(C3=NCCN3)cc2)cc1)c1ccc(C2=NCCN2)cc1
MIC (Escherichia coli [2]): 50 µM (≈ 22.6 µg/mL)
Activity (Escherichia coli [4]): Active
MIC (Escherichia coli [7]): 50 µM (≈ 22.6 µg/mL)
MIC (Escherichia coli [8]): 12.5 µM (≈ 5.66 µg/mL)
Activity (Escherichia coli BW25113 [1]): 12.5 µM
Activity (Escherichia coli [9]): Active
MIC (Escherichia coli [10]): 25 µM (≈ 11.3 µg/mL)
Activity (Escherichia coli [13]): inactive

O=C(/C=C/c1ccccc1C(F)(F)F)Nc1ccc(C2=NCCN2)cc1
Activity (Escherichia coli BW25113 [1]): 50 µM

Reference: ChEMBL document CHEMBL4011640, “Identification and Structure-Activity Relationships of Novel Compounds that Potentiate the Activities of Antibiotics in Escherichia coli” (J Med Chem, 2017)
